Columns and labels:
Assay type in all cases: in vivo
[1] = test system: canarygrass (Phalaris minor); test: Test B postemergence plant response; settings: for Plant response rating, Canarygrass: Postemergence
Method in brief: (§1)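 Plants grown in peat/vermiculite medium were sprayed postemergence at 2–18 cm height (1- to 4-leaf stage). After 13–15 days in the greenhouse, response was rated visually against untreated controls on a 0–100 scale (0 no effect, 100 complete control).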

[2] = test system: chickweed (Stellaria media); test: Test B postemergence plant response; settings: for Plant response rating, Chickweed: Postemergence
Method in brief: as §1

[3] = test system: windgrass (Apera spica-venti); test: Test B postemergence plant response; settings: for Plant response rating, Windgrass: Postemergence
Method in brief: as §1

[4] = test system: Surinam grass (Brachiaria decumbens); test: Test B pre-/postemergence plant response; settings: for Plant response rating, Surinam Grass: Postemergence
Method in brief: (§2)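 Response scores were assigned visually after 13 to 15 days in a greenhouse, comparing treated pots with controls on a 0–100 scale where 100 denotes complete control. Preemergence treatments went onto freshly seeded loam/sand soil; postemergence treatments onto plants 2 to 18 cm tall.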

[5] = test system: corn (Zea mays); test: Test B pre-/postemergence plant response; settings: for Plant response rating, Corn: Postemergence
Method in brief: as §2

[6] = test system: downy bromegrass (Bromus tectorum); test: Test B pre-/postemergence plant response; settings: for Plant response rating, Bromegrass, Downy: Postemergence
Method in brief: as §2

[7] = test system: pigweed (Amaranthus retroflexus); test: Test B pre-/postemergence plant response; settings: for Plant response rating, Pigweed: Postemergence
Method in brief: as §2

[8] = test system: wild oat (Avena fatua); test: Test B pre-/postemergence plant response; settings: for Plant response rating, Oat, Wild: Postemergence
Method in brief: as §2

[9] = test system: blackgrass (Alopecurus myosuroides); test: Test B pre-/postemergence plant response; settings: for Plant response rating, Blackgrass: Postemergence
Method in brief: as §2

[10] = test system: cocklebur (Xanthium strumarium); test: Test B pre-/postemergence plant response; settings: for Plant response rating, Cocklebur: Postemergence
Method in brief: as §2

[11] = test system: giant foxtail (Setaria faberii); test: Test B pre-/postemergence plant response; settings: for Plant response rating, Foxtail, Giant: Postemergence
Method in brief: as §2

[12] = test system: Italian ryegrass (Lolium multiflorum); test: Test B pre-/postemergence plant response; settings: for Plant response rating, Ryegrass, Italian: Postemergence
Method in brief: as §2

[13] = test system: morningglory (Ipomoea coccinea); test: Test B pre-/postemergence plant response; settings: for Plant response rating, Morningglory: Postemergence
Method in brief: as §2

[14] = 31 g ai/ha, 0 to 100 scale (0 no effect, 100 complete control)
[15] = 62 g ai/ha, scale 0 to 100 (0 no effect, 100 complete control)
[16] = 125 g ai/ha, scale 0 to 100 (0 no effect, 100 complete control)
[17] = 250 g ai/ha, scale 0 to 100 (0 no effect, 100 complete control), 13 to 15 days
[18] = 62 g ai/ha, postemergence, 0 is no effect, 100 is complete control, 13 to 15 days

## O=C(C1=C(O)C2CCC(C2)C1=O)c1cnc(-c2ccsc2)n(CC2CCCO2)c1=O (stereo not drawn) [Compound 229]
[1]; [14]
  Plant response rating, Canarygrass: 5
[1]; [15]
  Plant response rating, Canarygrass: 15
[1]; [16]
  Plant response rating, Canarygrass: 50
[1]; [17]
  Plant response rating, Canarygrass: 60
[2]; [14]
  Plant response rating, Chickweed: 70
[2]; [15]
  Plant response rating, Chickweed: 85
[2]; [16]
  Plant response rating, Chickweed: 90
[2]; [17]
  Plant response rating, Chickweed: 98
[3]; [14]
  Plant response rating, Windgrass: 0
[3]; [15]
  Plant response rating, Windgrass: 40
[3]; [17]
  Plant response rating, Windgrass: 65
[4]; [14]
  Plant response rating, Surinam Grass: 65
[4]; [15]
  Plant response rating, Surinam Grass: 70
[4]; [17]
  Plant response rating, Surinam Grass: 90
[5]; [14]
  Plant response rating, Corn: 70
[5]; [15]
  Plant response rating, Corn: 80
[5]; [16]
  Plant response rating, Corn: 85
[5]; [17]
  Plant response rating, Corn: 85
[6]; [14]
  Plant response rating, Bromegrass, Downy: 5
[6]; [15]
  Plant response rating, Bromegrass, Downy: 15
[6]; [16]
  Plant response rating, Bromegrass, Downy: 20
[6]; [17]
  Plant response rating, Bromegrass, Downy: 30
[7]; [14]
  Plant response rating, Pigweed: 80
[7]; [15]
  Plant response rating, Pigweed: 95
[7]; [17]
  Plant response rating, Pigweed: 100
[8]; [14]
  Plant response rating, Oat, Wild: 0
[8]; [15]
  Plant response rating, Oat, Wild: 5
[8]; [17]
  Plant response rating, Oat, Wild: 35
[9]; [14]
  Plant response rating, Blackgrass: 0
[9]; [15]
  Plant response rating, Blackgrass: 0
[9]; [16]
  Plant response rating, Blackgrass: 5
[9]; [17]
  Plant response rating, Blackgrass: 30
[10]; [14]
  Plant response rating, Cocklebur: 85
[10]; [15]
  Plant response rating, Cocklebur: 90
[10]; [16]
  Plant response rating, Cocklebur: 100
[10]; [17]
  Plant response rating, Cocklebur: 100
[11]; [14]
  Plant response rating, Foxtail, Giant: 75
[11]; [15]
  Plant response rating, Foxtail, Giant: 80
[11]; [16]
  Plant response rating, Foxtail, Giant: 80
[11]; [17]
  Plant response rating, Foxtail, Giant: 95
[12]; [14]
  Plant response rating, Ryegrass, Italian: 0
[12]; [15]
  Plant response rating, Ryegrass, Italian: 0
[12]; [17]
  Plant response rating, Ryegrass, Italian: 10
[13]; [14]
  Plant response rating, Morningglory: 98
[13]; [15]
  Plant response rating, Morningglory: 100
[13]; [16]
  Plant response rating, Morningglory: 100
[13]; [17]
  Plant response rating, Morningglory: 100

## CCCn1c(-c2cccc(C(F)(F)F)c2)ncc(C(=O)C2=C(O)CCCC2=O)c1=O [Compound 155]
[1]; [18]
  Canarygrass plant response rating (0 to 100 scale): 35
[1]; [14]
  Plant response rating, Canarygrass: 10
[1]; [16]
  Plant response rating, Canarygrass: 50
[1]; [17]
  Plant response rating, Canarygrass: 65
[2]; [18]
  Chickweed plant response rating (0 to 100 scale): 100
[2]; [14]
  Plant response rating, Chickweed: 100
[2]; [16]
  Plant response rating, Chickweed: 100
[2]; [17]
  Plant response rating, Chickweed: 100
[3]; [18]
  Windgrass plant response rating (0 to 100 scale): 55
[3]; [14]
  Plant response rating, Windgrass: 50
[3]; [16]
  Plant response rating, Windgrass: 70
[3]; [17]
  Plant response rating, Windgrass: 85
[4]; [18]
  Surinam Grass plant response rating (0 to 100 scale): 55
[4]; [14]
  Plant response rating, Surinam Grass: 40
[4]; [16]
  Plant response rating, Surinam Grass: 65
[4]; [17]
  Plant response rating, Surinam Grass: 75
[5]; [18]
  Corn plant response rating (0 to 100 scale): 25
[5]; [14]
  Plant response rating, Corn: 5
[5]; [16]
  Plant response rating, Corn: 40
[5]; [17]
  Plant response rating, Corn: 65
[6]; [18]
  Bromegrass, Downy plant response rating (0 to 100 scale): 30
[6]; [14]
  Plant response rating, Bromegrass, Downy: 5
[6]; [16]
  Plant response rating, Bromegrass, Downy: 35
[6]; [17]
  Plant response rating, Bromegrass, Downy: 50
[7]; [18]
  Pigweed plant response rating (0 to 100 scale): 100
[7]; [14]
  Plant response rating, Pigweed: 98
[7]; [16]
  Plant response rating, Pigweed: 100
[7]; [17]
  Plant response rating, Pigweed: 100
[8]; [18]
  Oat, Wild plant response rating (0 to 100 scale): 40
[8]; [14]
  Plant response rating, Oat, Wild: 10
[8]; [16]
  Plant response rating, Oat, Wild: 60
[8]; [17]
  Plant response rating, Oat, Wild: 70
[9]; [18]
  Blackgrass plant response rating (0 to 100 scale): 35
[9]; [14]
  Plant response rating, Blackgrass: 10
[9]; [16]
  Plant response rating, Blackgrass: 60
[9]; [17]
  Plant response rating, Blackgrass: 65
[10]; [18]
  Cocklebur plant response rating (0 to 100 scale): 55
[10]; [14]
  Plant response rating, Cocklebur: 15
[10]; [16]
  Plant response rating, Cocklebur: 98
[10]; [17]
  Plant response rating, Cocklebur: 100
[11]; [18]
  Foxtail, Giant plant response rating (0 to 100 scale): 80
[11]; [14]
  Plant response rating, Foxtail, Giant: 65
[11]; [16]
  Plant response rating, Foxtail, Giant: 90
[11]; [17]
  Plant response rating, Foxtail, Giant: 95
[12]; [18]
  Ryegrass, Italian plant response rating (0 to 100 scale): 30
[12]; [14]
  Plant response rating, Ryegrass, Italian: 5
[12]; [16]
  Plant response rating, Ryegrass, Italian: 40
[12]; [17]
  Plant response rating, Ryegrass, Italian: 60
[13]; [18]
  Morningglory plant response rating (0 to 100 scale): 85
[13]; [14]
  Plant response rating, Morningglory: 55
[13]; [16]
  Plant response rating, Morningglory: 100
[13]; [17]
  Plant response rating, Morningglory: 100
